In EP4316482A1, “LEVODOPA FOR PREVENTING ADDICTION” (4P-Pharma, priority 2022, dated 2024):

Key:
Type in all cases: in vivo
C57B1/6J mice [1] = test: Observation of mice activity: methylphenidate-induced hyperactivity (Example 1); conditions: male mice, IP, methylphenidate 10 mg/kg, levodopa 17 mg/kg, 5 minutes session 15 minutes after treatment, Mean ± SEM, n=6; for horizontal activity: line crossings; for vertical activity: rearing or climbing
Procedure: • Species / Strain: Mice / C57B1/6J • Gender / Number / Age: Male / 24 / 8 weeks at study initiation • Source: Janvier Labs, France
The Test items and vehicle were administered via intraperitoneal injections according to Table 2. Table 2 - Study design
(§1) Mice were subj ected to a behavioral test to evaluate their activity 15 minutes after treatment administration (5 minutes session). Mice were acclimated to the surrounding for 15 minutes before the beginning of the test. At the appropriate time after treatment administration, mice (1 per cage) were placed in the middle of a polyethylene cage measuring 17 × 32 × 14 cm without stainless steel top grill (no access to food or drinking water), without bedding and with a line drawn at the bottom of the cage. Activity was then monitored during 5 minutes session at 15 minutes after treatment administration, measuring different parameters: • Horizontal activity: the number of times the mice crossed the line drawn at the bottom of the cage during the session was recorded to assess horizontal activity levels. • Vertical activity: the number of rearing or climbing was recorded to assess vertical activity levels.

C57B1/6J mice [2] = test: Behavioral sensitization test for methylphenidate addiction/dependence (Example 4); conditions: methylphenidate 10 mg/kg, Mean ± SEM; for locomotor activity (total distance travelled) / horizontal activity: female and male mice, IP, levodopa/carbidopa 17/1.7 mg/kg; for locomotor activity (total distance travelled): 20 minutes session; for horizontal activity: line crossings
Procedure: • Species / Strain: Mice / C57B1/6J • Gender / Number / Age: Male / 30 / 9 weeks at study initiation and Female / 35 / 9 weeks at study initiation • Source: Janvier Labs, France
The Test items and vehicle were administered via intraperitoneal injections according to Table 5. Table 5 - Study design
Mice were subjected to a behavioral test to evaluate their activity after treatment or vehicle administration. Mice (1 per cage) were placed in the center of a polyethylene cage without stainless steel top grill (no access to food or drinking water), without bedding and with a line drawn at the bottom of the cage. First, mice were acclimated to the surrounding and video-recorded for 10 minutes before the beginning of the test to analyse the baseline motor activity (total distance travelled). Second, mice were injected with test item or vehicle and acclimated for another 5 minutes and activity was again monitored and video recorded during a 20 minutes session. The 10 minutes video containing basal activity and the 20 minutes video after treatment administration were analysed using the ezTracker-master software. Horizontal activity was also measured. It represents the number of times the mice crossed the line drawn at the bottom of the cage. Animals are submitted to 6 sessions (3 sessions/week on Monday, Wednesday and Friday). During session 1, all mice receive an administration of vehicle. During sessions 2-5, groups 1F/1M receive an injection of vehicle; groups 2F/2M receive methylphenidate injection, groups 3F/3M receive levodopa/carbidopa injection and groups 4F/4M receive levodopa/carbidopa and methylphenidate injections. And during session 6, all mice receive an administration of methylphenidate.

C57B1/6J mice [3] = test: Hyperactivity and behavioral sensitization induced by methylphenidate: distance travelled in drug sessions (Example 3); conditions: male mice, IP; methylphenidate 3 mg/kg, levodopa (carbidopa) 8,5(0,85) or 17(1,7) mg/kg; four 30 minutes drug sessions; n=9
Procedure: • Species / Strain: Mice / C57B1/6J • Gender / Number / Age: Male / 36 / 6-8 weeks at study initiation • Source: Janvier Labs, France
The Test items and vehicle were administered via intraperitoneal injections according to Table 4. Table 4 - Study design
Mice were subj ected to a behavioral test to evaluate their activity 30 minutes after treatment administration. Mice received an administration of vehicle and were placed in the apparatus (20 cm wide, 40 cm large, 40 cm high) for the habituation session (30 minutes). After, 4 drug sessions were performed on days 2, 4, 8 and 10 or on days 3, 5, 9 and 11. Mice were injected with one of the tested drugs (or vehicle) immediately before being placed in the box. Mice activity was then monitored during 30 minutes session after treatment administration, measuring: distance travelled in the compartment in the four sessions.

C57B1/6J mice [4] = test: Observation of mice activity: methylphenidate-induced hyperactivity, levodopa/carbidopa (Example 2); conditions: male mice, IP, methylphenidate 20 mg/kg, levodopa (carbidopa) 17(1,7) mg/kg, 5 minutes session 15 minutes after treatment, Mean ± SEM, n=6
Procedure: • Species / Strain: Mice / C57B1/6J • Gender / Number / Age: Male / 24 / 9 weeks at study initiation • Source: Janvier Labs, France
The Test items and vehicle were administered via intraperitoneal injections according to Table 3. Table 3 - Study design
as §1

[5] = day 3, development of behavioral sensitization
[6] = day 10, development of behavioral sensitization

Compound	horizontal activity (C57B1/6J mice [1])	vertical activity (C57B1/6J mice [1])	locomotor activity (total distance travelled) (C57B1/6J mice [2]; [5])	horizontal activity (C57B1/6J mice [2]; [5])	locomotor activity (total distance travelled) (C57B1/6J mice [2]; [6])	horizontal activity (C57B1/6J mice [2]; [6])	locomotor activity before treatment administration (baseline motor activity) (C57B1/6J mice [2]; experimental day 12, 10 minutes baseline session before injection, after chronic treatment, levodopa/carbidopa 17/1.7 mg/kg IP)	distance travelled during drug sessions (C57B1/6J mice [3])	horizontal activity (C57B1/6J mice [4]; line crossings)	vertical activity (C57B1/6J mice [4]; rearing or climbing)
N[C@@H](Cc1ccc(O)c(O)c1)C(=O)O [levodopa, L-3,4-dihydroxyphenylalanine]	17±4 counts	24±7 counts	–	–	–	–	–	–	–	–
COC(=O)C(c1ccccc1)C1CCCCN1 (stereo not drawn) [methylphenidate, Methylphenidate]	49±11 counts	42±16 counts	127,39±38,76 meters	259,69±115,51 counts	185,70±41,44 meters	420,38±137,05 counts	28,35±7,43 meters	increased the distance travelled during drug sessions compared to vehicle-treated group	62±24 counts	59±10 counts
